Type in all cases: functional, cell-based
Assay [1] relates to HL-60. The experiment in a line: Cytotoxicity against human HL-60 cells assessed as reduction in cell viability incubated for 48 hrs by MTT assay. As to conditions: HL-60, 48 h.
The subject of assay [2] is HeLa. The assay can be described thus: Cytotoxicity against human HeLa cells assessed as reduction in cell viability incubated for 48 hrs by MTT assay.
Assay [3] concerns SMMC-7721. The experiment in a line: Cytotoxicity against human SMMC-7721 cells assessed as reduction in cell viability incubated for 48 hrs by MTT assay. As to conditions: SMMC-7721, 48 h.
Assay [4] relates to HepG2. The experiment in a line: Cytotoxicity against human HepG2 cells assessed as reduction in cell viability incubated for 48 hrs by MTT assay. As to conditions: HepG2, 48 h.

Results on three molecules are retold here after ChEMBL document CHEMBL5236559 (J Med Chem, 2021).

Regarding `NCCCCCC(=O)Nc1cccc([As]2SCCCS2)c1`, the IC50 in assay [1] is 1.51 µM; in assay [2], more than 10 µM; in assay [3], more than 10 µM; in assay [4] it was 5.48 µM.

Take `NCCCCCC(=O)Nc1ccccc1[As]1SCCCS1`: the IC50 was 1.64 µM in assay [1], more than 10 µM in assay [2], more than 10 µM in assay [3] and 8.47 µM in assay [4].

For `NCCCCCC(=O)Nc1ccc([As]2SCCCS2)cc1`, the IC50 in assay [1] was 1.25 µM; in assay [2], more than 10 µM; in assay [3], more than 10 µM; in assay [4], 5.36 µM.
